pIC50: −log10 of the molar value.
Columns and labels:
[1] = Inhibition of IGF-I stimulated MCF-7 human breast tumor cell proliferation
[2] = Inhibition of IGF-II stimulated MCF-7 human breast tumor cell proliferation

COc1cc(/C=C(\C#N)c2ccccn2)ccc1O
pIC50 [1]: 5.54
pIC50 [2]: 5.49

Reference: BindingDB's records for doi:10.1021/jm990947f (University of Nottingham, 2000)
